Laboratory results published in patent US9526766B2, “Potentiation of antibiotic treatment with a protein-lipid complex” (priority 2012, dated 2016).
≈ marks a conversion by molar mass, not a printed value. Entries after “also recorded” stand apart in the source; their conditions may differ. Read-outs that look alike come from different tables or passages of the source.

How the values were obtained:
Assay type in all cases: cell-based
Staphylococcus aureus [1] = assay: MIC by broth microdilution, antibiotics with and without ALAFAC; details: Staphylococcus aureus, antibiotic alone, read-out: MIC
Method: (§1) Methodology: Minimal inhibitory concentrations (MICs) were determined in 96-well microtiter plates using the microdilution method according to approved standards of the CLSI except that Todd-Hewitt medium supplemented with 0.5% yeast extract, which yields reproducible MIC results was used as the test medium for S. pneumoniae. For the remaining species Mueller-Hinton medium was used as indicated by the CLSI standard. Each well contained two-fold dilutions of antibiotic, was seeded with a final bacterial concentration of 10^5 CFU/mL, and was incubated for 18 h at 37° C. in a Synergy II microplate reader (Biotek, Winooski, Vt.) where the OD600 was recorded every 5 minutes to monitor bacterial growth. The MIC was defined as the lowest concentration of antimicrobial agent solution at which no increase in OD600 was detected.
In vitro susceptibility tests. Minimal inhibitory concentrations (MICs) were determined in 96-well microtiter plates using the microdilution method according to approved standards of the CLSI as described previously. However, rather than Mueller-Hinton broth, Tryptic soy broth (TSB) was used for susceptibility testing as it is the common media used for Staphylococcal growth, and as it has shown more consistent results for a variety of antimicrobials when tested against Staphylococci. […] A two-fold dilution series of antibiotics in triplicate and in the presence or absence of ALAFAC was prepared in 96 well microtiter plates, and each well was seeded with a final bacterial concentration of 10^5 CFU/mL, and was incubated for 24 h at 37° C. in a Synergy 2 microplate reader (Biotek, Winooski, Vt.) where the Optical Density at 600 nm (OD600) was recorded every 5 minutes to monitor bacterial growth. The MIC was defined as the lowest concentration of antimicrobial agent solution where no increase in OD600 was detected.

Staphylococcus aureus [2] = assay: Minimal bactericidal concentration (MBC) from MIC plates; details: Staphylococcus aureus, antibiotic alone, read-out: MBC
Excerpt: The MBC was defined as the lowest concentration of antimicrobials yielding colony counts <0.1% (3 log10 reduction) of the initial inoculum (as determined by colony counts from the growth control well immediately after inoculation) as described.

Staphylococcus aureus [3] = assay: Bactericidal activity on planktonic cultures; details: antibiotic alone
Method: (§2) Methodology: In late logarithmic growth phase, the bacteria were harvested by centrifugation at 12,000×g for 10 minutes and resuspended in phosphate-buffered saline (PBS; […], […], […], pH 7.4). Appropriate dilutions of the bacteria were suspended in PBS and treated with indicated concentrations of ALAFAC and/or antibiotics for various times. The effect on bacterial viability was assessed by plating serial dilutions of bacterial sample on tryptic soy agar plates containing 5% sheep blood (viable counts) and determining viable colony forming units after overnight growth at 37° C.

Acinetobacter baumanni = assay: MIC by broth microdilution, antibiotics with and without ALAFAC; details: agent alone
Method: as §1
(§3) In vitro susceptibility tests. Minimal inhibitory concentrations (MICs) were determined in 96-well microtiter plates using the microdilution method according to approved standards of the CLSI except that Todd-Hewitt medium supplemented with 0.5% yeast extract, which yields reproducible MIC results was used as the test medium for S. pneumoniae. MICs for A. baumanni, and M. catarrhalis were determined in MH media. Two-fold dilutions of a starting antibiotic concentration was added in triplicate into microtiter plate wells (in 96-well plates), were seeded with a final bacterial concentration of ˜10^5 colony forming units (CFU)/mL, and was incubated for 18 h in ambient air at 37° C. in a Synergy II microplate reader (Biotek, Winooski, Vt.) where the OD600 was recorded every 5 minutes to monitor bacterial growth. The MIC was defined as the lowest concentration of antimicrobial agent solution at which no increase in OD600 was detected.

Moraxella catarrhalis = assay: as above; details: agent alone
Method: as §1, §3

Streptococcus pneumoniae = assay: Short-time kill assay on planktonic cultures; details: for Minimum antibiotic concentration for bactericidal (>3 log10) activity, planktonic: within 4-6 hours, antibiotic alone
Method: as §2
Short-time kill assays. In late logarithmic growth phase, the bacteria were harvested by centrifugation at 12,000×g for 10 minutes and resuspended in phosphate-buffered saline (PBS; 30 mM Na2HPO4, 10 mM KH2PO4, […], pH 7.4). Appropriate concentrations of the bacteria (around 10^8 colony forming units per ml) were suspended in PBS and treated with indicated concentrations of ALAFAC and/or antibiotics for various times. The effect on bacterial viability was assessed by plating serial dilutions of bacterial sample on tryptic soy agar plates containing 5% sheep blood (viable counts) and determining viable CFUs after overnight growth at 37° C.

COc1cccc(OC)c1C(=O)N[C@@H]1C(=O)N2[C@@H]1SC(C)(C)[C@@H]2C(=O)O [Methicillin, methicillin]
MIC (Staphylococcus aureus [1]; S. aureus 10307570): 16 µg/mL | MIC (Staphylococcus aureus [1]; S. aureus 11090306 (MSSA)): 2 µg/mL | MIC (Staphylococcus aureus [1]; S. aureus NRS1): > 128 µg/mL | MIC (Staphylococcus aureus [1]; S. aureus NRS70): 32 µg/mL | MIC (Staphylococcus aureus [1]; S. aureus NRS71): > 128 µg/mL | MIC (Staphylococcus aureus [1]; S. aureus NRS100): > 128 µg/mL | MIC (Staphylococcus aureus [1]; S. aureus NRS123): 32 µg/mL | MIC (Staphylococcus aureus [1]; S. aureus NRS384): 16 µg/mL | MBC (Staphylococcus aureus [2]; NRS1, S. aureus NRS1): > 256 µg/mL | MBC (Staphylococcus aureus [2]; NRS70, S. aureus NRS70): 128 µg/mL (≈ 336 µM) | MBC (Staphylococcus aureus [2]; NRS71, S. aureus NRS71): > 256 µg/mL | MBC (Staphylococcus aureus [2]; NRS100, S. aureus NRS100): > 256 µg/mL | MBC (Staphylococcus aureus [2]; NRS123, S. aureus NRS123): > 256 µg/mL | MBC (Staphylococcus aureus [2]; NRS384, S. aureus NRS384): > 256 µg/mL | MBC (Staphylococcus aureus [2]; S. aureus 11090306): 64 µg/mL (≈ 168 µM) | MBC (Staphylococcus aureus [2]; S. aureus 10307570): > 256 µg/mL | Minimum antibiotic concentration for bactericidal (>3 log10) activity, planktonic (Staphylococcus aureus [3]; S. aureus 10307570): >128 μg/ml | Minimum antibiotic concentration for bactericidal (>3 log10) activity, planktonic (Staphylococcus aureus [3]; S. aureus 11090306): 64 μg/ml | Minimum antibiotic concentration for bactericidal (>3 log10) activity, planktonic (Staphylococcus aureus [3]; S. aureus NRS1): >128 μg/ml | Minimum antibiotic concentration for bactericidal (>3 log10) activity, planktonic (Staphylococcus aureus [3]; S. aureus NRS70): 128 μg/ml | Minimum antibiotic concentration for bactericidal (>3 log10) activity, planktonic (Staphylococcus aureus [3]; S. aureus NRS71): >128 μg/ml | Minimum antibiotic concentration for bactericidal (>3 log10) activity, planktonic (Staphylococcus aureus [3]; S. aureus NRS100): >128 μg/ml | Minimum antibiotic concentration for bactericidal (>3 log10) activity, planktonic (Staphylococcus aureus [3]; S. aureus NRS123): >128 μg/ml | Minimum antibiotic concentration for bactericidal (>3 log10) activity, planktonic (Staphylococcus aureus [3]; S. aureus NRS384, within 4-6 hours): >128 μg/ml

CC1(C)S[C@@H]2[C@H](NC(=O)Cc3ccccc3)C(=O)N2[C@H]1C(=O)O [Penicillin, penicillin G]
MIC (Acinetobacter baumanni; A. baumanni AB307): >100 µg/mL | MIC (Acinetobacter baumanni; A. baumanni AB979): >100 µg/mL | MIC (Acinetobacter baumanni; A. baumanni AB979, listed as penicillin): exceeded 100 μg/ml | MIC (Acinetobacter baumanni; Acinetobacter, A. baumanni AB307, read-out: MIC): > 100 µg/mL | MIC (Moraxella catarrhalis; M. catarrhalis 7169 (MC7169)): >50 µg/mL | MIC (Moraxella catarrhalis; M. catarrhalis BC8 (MCBC8)): >50 µg/mL | MIC (Moraxella catarrhalis; M. catarrhalis BC8 (MCBC8), listed as penicillin): exceeded 50 μg/ml | MIC (Moraxella catarrhalis; Moraxella catarrhalis, M. catarrhalis 7169 (MC7169), read-out: MIC): > 50 µg/mL | Short-time killing (death of inoculum) (Streptococcus pneumoniae; D39, 4 hours, ALAFAC 50 μg/ml, penicillin G 20 μg/ml, alone or combined, 7.5 log10 inoculum): no bactericidal activity; also recorded: no death | Short-time killing (Streptococcus pneumoniae; D39, penicillin G alone at 5,000 μg/ml, 4 hours): ≤ 2.6 log10 | Short-time killing (Streptococcus pneumoniae; D39, penicillin alone at 50-fold higher concentration (1,000 μg/ml), 4 hours): ≤ 2.6 log10 | Bactericidal activity alone (Streptococcus pneumoniae; D39 and EF3030, 1 hour, penicillin G up to 5,000 μg/ml, erythromycin up to 1,000 μg/ml): lacked any bactericidal activity | Minimum antibiotic concentration for bactericidal (>3 log10) activity, planktonic (Streptococcus pneumoniae; S. pneumoniae D39): >5,000 μg/ml | Minimum antibiotic concentration for bactericidal (>3 log10) activity, planktonic (Streptococcus pneumoniae; S. pneumoniae SP670): >5,000 μg/ml | Short-time killing (Streptococcus pneumoniae; SP670, penicillin 30 μg/mL alone or with ALAFAC 50 μg/mL, 4 hours): no bactericidal activity
